A short description of one data set: Acute toxicity (M) LD 50. The following applies: in vivo, mouse.
Data set [1] relates to mice. In words: Traction test (mice), myorelaxant activity. To be noted: for ED50: Mus musculus, po, read-out: Traction, 50% effective dose. It is filed as in vivo. An excerpt:
This consists in observing when the treated animals are capable of retrieving a rod grasped by the front paws only. Inability to carry this out was interpreted as a sign of myorelaxant activity.

Data set [2] relates to mice. Kind of data set: Balance test: rotating rod (mice) (Equilibration). It is filed as in vivo. To be noted: for ED50: Mus musculus, po, read-out: Equilibration, 50% effective dose. The source says:
2. Balance test: rotating rod (mice)
This test consists in observing whether the treated animals are capable of maintaining their balance on a horizontal rod kept in rotation.
Numerous neuroleptic compounds or tranquilizers disturb the equilibration reflex.

Data set [3] relates to mice. In words: Anti-convulsant activity (anti-pentetrazole) (mice). It counts as in vivo. The following applies: mouse, PO; pentetrazole 125 mg./kg. IP; read-out: Anti-pentetrazole, 50% effective dose. On the procedure: 3. Anti-convulsant activity (anti-pentetrazole) (mice)
Pentetrazole, injected intraperitoneally in a dose of 125 mg./kg. produces fatal convulsions in 100% of the animals.
Certain compounds exert a protective action preventing convulsions and permitting survival.

Data set [4] relates to mice. In words: Anti-convulsant activity (electric shock) (mice). It is filed as in vivo. The following applies: for ED50: Mus musculus, po, read-out: Electric shock, 50% effective dose. An excerpt:
4. Anti-convulsant activity (electric shock) (mice)
The test consists in determining the intensity of the electric current required to produce a fatal shock in a batch of test animals.
Certain preventively administered compounds effectively protect a certain percentage of animals subjected to an electric current of an intensity which is fatal to untreated animals.

Data set [5] concerns mice. In words: Exploration test (mice). It counts as in vivo. To be noted: for ED50: Mus musculus, po, read-out: Exploration, 50% effective dose. On the procedure:
5. Exploration test (mice)
This extremely simple test consists in placing a mouse at the center of a floor pierced with holes and in noting how many holes the mouse explores in 5 minutes. This test is carried out in a room in which complete silence is observed and which contains no person except the experimenter who is seated and still. It appeals to the curiosity of the animals. The doses of the compounds employed are, however, very small and considerably less than those required to impair movement. This simple test makes it possible to observe whether the compounds assayed produce a more or less pronounced lack of interest in the environment and it gives information which is interesting from the clinical point of view with regard to the treatment of anxiety and restlessness.

In data set [6] the test system is rat. Kind of data set: Spontaneous motor activity in the rat. It counts as in vivo. The following applies: for ED50: Rattus norvegicus, po, read-out: Spontaneous motor activity, 50% effective dose. The source says:
(§1) 6. Spontaneous motor activity in the rat and mouse and provoked motor activity
(§2) The effect of drugs on voluntary movements of animals can be studied statistically by methods, the details of which will not be discussed here. The mouse, which is an extremely lively animal and moves about a great deal, is particularly suitable for this type of experiment.

In data set [7] the test system is mouse. In words: Spontaneous motor activity in the mouse. It is filed as in vivo. The following applies: for ED50: Mus musculus, po, read-out: Spontaneous motor activity, 50% effective dose.
Excerpt: as §1, §2

The test system of data set [8] is rat. Kind of data set: Benzedrine provoked motor activity (R). It counts as in vivo. The following applies: PO, read-out: Benzedrine provoked motor activity, 50% effective dose.
Excerpt: as §1, §2
(§3) Moreover, this spontaneous mobility can be exacerbated by preventive administration to the animals of certain substances such as benzedrine, mescaline and ritaline.
(§4) The experimental results obtained by these methods give valuable information for clinical purposes with regard to the treatment of ambulatory psychomotor crises.

Data set [9] deals with mouse. Kind of data set: Benzedrine provoked motor activity (M). It is filed as in vivo. To be noted: PO, read-out: Benzedrine provoked motor activity, 50% effective dose.
Excerpt: as §1, §2, §3, §4

For data set [10], the system named is mouse. In words: Mescaline provoked motor activity (M). It is filed as in vivo. The following applies: PO, read-out: Mescaline provoked motor activity, 50% effective dose.
Excerpt: as §1, §2, §3, §4

The test system of data set [11] is mouse. Kind of data set: Ritaline provoked motor activity (M). It counts as in vivo. The following applies: PO, read-out: Ritaline provoked motor activity, 50% effective dose.
Excerpt: as §1, §2, §3, §4

Data set [12] deals with mouse. Kind of data set: Antistrychnine activity. It is filed as in vivo. The following applies: po, read-out: Anti-strychnine, 50% effective dose. An excerpt:
7. Antistrychnine activity

Data set [13] concerns mouse. In words: Morphine excitation (M). It is filed as in vivo. The following applies: PO, read-out: Morphine excitation, 50% effective dose. The source says:
In the mouse, the action of morphine is different but also manifested by marked central excitation.

In a further data set the test system is cat. In words: Morphine crisis (C). It is filed as in vivo. To be noted: Felis catus, SC, read-out: Morphine crisis, 50% effective dose. An excerpt:
In the cat, morphine produces a specific state of excitation with hallucinations which can be attenuated or suppressed by certain psycholeptic drugs.

The test system of the next data set is cats. Kind of data set: Aggressiveness (cat/mouse). It counts as in vivo. To be noted: Felis catus, SC, read-out: Aggressiveness, 50% effective dose. The source says: 9. Aggressiveness (cat/mouse)
In general, 75 to 80% of cats are aggressive when confronted with white mice. Psycholeptics and tranquilizers may make the cat indifferent and sometimes even amiable to the mouse. Similarly, in the case of cats that are furious and aggressive in relation to humans, diminution or suppression of the instinctive fear and establishment of a climate of confidence are observed.

Another data set deals with male rat. In words: Combativeness (rat). It counts as in vivo. To be noted: for ED50: rat, PO, read-out: Combativeness, 50% effective dose. An excerpt: It is possible to make a male rat aggressive towards another male rat enclosed in the same cage by passing an electric current of more or less high voltage through the floor of the cage.
This test, like the preceding one, can obviously give information of clinical value for the treatment of aggression diseases.

For data set [14], the system named is mouse. Kind of data set: Potentiation of narcosis (M). It counts as in vivo. The following applies: PO, read-out: Narcotic potentiation, 50% effective dose. The source says: 12. Potentiation of narcosis
Most psycholeptics are hypnotics in large doses, but many of them can, in small doses, without themselves producing any hypnosis, either prolong the time of sleep obtained with a true hypnotic (for example a barbiturate) or appreciably lower the dose of barbiturate required to obtain sleep.

The nature of data set [15]: Reaction (pH) of aqueous solution. It counts as physicochemical.
Another data set deals with central nervous system. In words: Pharmacodynamic / central nervous system tests taken together. It counts as in vivo. The source says:
A certain number of the compounds described in the present application have been studied with regard to their action on the central nervous system, as psycholeptics, myorrelaxants and tranquilizers. In addition, the acute toxicity has been determined for a number of these compounds.
It has thereby been possible to make quantitative comparisons of the activity of the different compounds for the different tests employed.

The next data set relates to rats. In words: Double box conditioning test (R). It counts as in vivo. The following applies: rat. The source says: The test used consists in educating rats to avoid an electric current passed through the floor of a cage of two compartments when they change compartments. The animal is first warned by a lamp which lights up in the compartment through which the current is passing while the other is in relative darkness.
This test, which requires more or less daily training at the rate of 50 times for each rat, makes it possible to follow the animals and note their progress. The performances realized at the end of a certain time (3 weeks to 1 month of training) are fairly constant, the percentage of errors made by adequately gifted subjects being less than 10 and very often even zero.
One would imagine that disturbances produced in these performances which call upon the memory of animals would be of great importance for the choice of a new medicament. A deconditioning drug of sufficient intensity could have the result of partly depriving the patient of the idea of danger and would consequently require special surveillance of the sick persons.

Take `O=C(O)C1N=C(c2ccccc2)c2cc(Cl)ccc2NC1=O.[K+].[K+].[OH-].[OH-]` (stereo not shown) [4306 CB, 7-Chloro-2,3-dihydro-2-oxo-5-phenyl-1H-benzo[f]-1,4-diazepine-3-carboxylic acid, monopotassium salt, monopotassium hydroxide]: the LD50 (commonly the dose expected to kill half of the subjects tested) in the data set “Acute toxicity (M) LD 50” (IP) worked out at 250 mg/kg; in the data set “Acute toxicity (M) LD 50” (PO), 700 mg/kg. Besides, the ED50 in the data set on mice [1] was 1.1 mg/kg; in the data set with mice [2], 14 mg/kg; in the data set on mice [3] it was 1.7 mg/kg; with mice [4], 4.6 mg/kg; with mice [5] it was 4 mg/kg; in the data set with rat [6] it was under 25 mg/kg. Further, the ED50 was 5 mg/kg in the data set with mouse [7]; over 100 mg/kg in the data set with rat [8]; over 20 mg/kg in the data set on mouse [9]; 20 mg/kg with mouse [10]; 20 mg/kg in the data set with mouse [11]; 25 mg/kg in the data set with mouse [12]. Further, the ED50 is 50 mg/kg with mouse [13]; 25 mg/kg with cat; 25 mg/kg in the data set with cats; under 25 mg/kg in the data set with male rat; 2 mg/kg in the data set on mouse [14]. The “Traction, 50% effective dose” value in the data set with mice [1] (mouse, PO, listed as Ca 2053) was 1.25 mg/kg. For the same compound, in the data set on mice [2] (mouse, PO, listed as Ca 2053), the “Equilibration, 50% effective dose” value amounted to 9.6 mg/kg. In the data set with mice [4] (mouse, PO, listed as Ca 2053), the “Electric shock, 50% effective dose” value worked out at 3 mg/kg. For the same compound, the “Exploration, 50% effective dose” value with mice [5] (mouse, PO, listed as Ca 2053) was 6.25 mg/kg. Moreover, the “Spontaneous motor activity, 50% effective dose” value in the data set on rat [6] (PO, listed as Ca 2053) was 25 mg/kg; in the data set on mouse [7] (PO, listed as Ca 2053), 10 mg/kg. Moreover, in data set [15], the “Reaction / pH of aqueous solution” value is reported as “strongly alkaline in reaction”. Moreover, the “Activity compared with diazepame” value in the data set on central nervous system (most of the tests) was “highly active and in most of the tests, it is at least equal and frequently superior to diazepame”. Moreover, the “Pharmacodynamic comparison of products obtained by the two methods” value in the data set on central nervous system (saponification of benzodiazepine ester or of imine diester) is reported as “pharmacodynamic studies confirm the identity of the products obtained by the two methods”. Further, the Solubility in water result in “Solubility” is reported as “completely soluble in water”.
Consider `O=C(O)C1N=C(c2ccccc2)c2cc([N+](=O)[O-])ccc2NC1=O.[K+].[K+].[OH-].[OH-]` (stereo not shown) [4335 CB, 7-Nitro-2,3-dihydro-2-oxo-5-phenyl-1H-benzo[f]-1,4-diazepine-3-carboxylic acid, monopotassium salt, monopotassium hydroxide], for which the LD50 in “Acute toxicity (M) LD 50” (PO) was 560 mg/kg. The ED50 in the data set with mice [1] was found to be 1.25 mg/kg; with mice [2], 4.3 mg/kg; in the data set on mice [3], 0.44 mg/kg; in the data set on mice [4], 3.2 mg/kg; with mice [5] it was 1.8 mg/kg; in the data set on rat [6], 25 mg/kg. Also, the ED50 was 5 mg/kg with mouse [7]; 100 mg/kg in the data set with rat [8]; 20 mg/kg in the data set on mouse [10]; over 20 mg/kg in the data set on mouse [11]; over 20 mg/kg in the data set on mouse [12]; 50 mg/kg in the data set on mouse [13]. Moreover, the ED50 was found to be 25 mg/kg in the data set with cat, 25 mg/kg in the data set with cats and 10 mg/kg with male rat. Besides, the “Effect in diminishing aggressiveness” value in the data set with male rat (test for combativeness) is “marked effect in diminishing aggressiveness”. In data set [15], the “Reaction / pH of aqueous solution” value is on record as “strongly alkaline in reaction”. In addition, the “Activity in different tests, especially as myorelaxants and anticonvulsants” value with central nervous system (different tests of Table VI) was “extremely active in different tests”. Besides, the “Effect on the faculties of displacement” value with central nervous system (in vivo) is recorded as “less effect on the faculties of displacement”. The Solubility in water result in the data set “Solubility” is reported as “dissolves completely in water”.
As for `CN1C(=O)CN=C(c2ccccc2)c2cc(Cl)ccc21` [Diazepame, 7-Chloro-1-methyl-5-phenyl-2-oxo-2,3-dihydro-1H-benzo[f]-1,4-diazepine, reference compound], the ED50 in the data set with mice [1] worked out at 1.6 mg/kg; with mice [2] it was 4.4 mg/kg; in the data set on mice [3], 1.7 mg/kg; with mice [4] it was 5 mg/kg; in the data set with mice [5] it was 6 mg/kg; with rat [6] it was 25 mg/kg. Further, the ED50 with mouse [7] is 5 mg/kg; in the data set with rat [8], 100 mg/kg; in the data set on mouse [9] it was over 20 mg/kg; in the data set with mouse [12], over 50 mg/kg; with mouse [13], 25 mg/kg; in the data set with cat it was 25 mg/kg. The values for the ED50 in the data set on cats, in the data set with male rat and in the data set with mouse [14] were 25 mg/kg, 25 mg/kg and 2.5 mg/kg, respectively.
`O=C1CN=C(c2ccccc2)c2cc(Cl)ccc2N1` [Nor-diazepame, 7-Chloro-5-phenyl-2-oxo-2,3-dihydro-1H-benzo[f]-1,4-diazepine, reference compound]: the ED50 was 3.5 mg/kg with mice [1]; 8.6 mg/kg in the data set with mice [2]; 2.9 mg/kg in the data set on mice [3]; 9 mg/kg with mice [4]; 7.8 mg/kg in the data set with mice [5]; 50 mg/kg in the data set with rat [6]. The ED50 in the data set on mouse [7] was 50 mg/kg; with rat [8], 100 mg/kg; in the data set on mouse [9] it was over 20 mg/kg; in the data set with male rat it was 100 mg/kg. Besides, in the data set on rats, the “Double box conditioning, effect in words” value is listed as “Without effect”.
